Measurements as given in patent publication US9464071B2 (priority 2010, dated 2016).
“And” between values parts separate entries of the source, which are not always exact repeats. Identical values can stand only once. Counter-ions that a name gives are not always drawn.

SMILES	melting point
CNC(=O)Cn1cc(-c2cnc3ccc(N(CCNC(C)C)c4cc(OC)cc(OC)c4)cc3n2)cn1 (as salt: HCl) [Compound 134, 2-(4-{7-[(3,5-Dimethoxyphenyl){2-[(1-methylethyl)amino]ethyl}amino]quinoxalin-2-yl}-1H-pyrazol-1-yl)-N-methylacetamide]	184 °C
COC(=O)c1cccnc1C#CCN(c1cc(OC)cc(OC)c1)c1ccc2ncc(-c3cnn(C)c3)nc2c1	156 °C
COc1cc(OC)cc(N(CCN(Cc2ccc(N)cc2)C(C)C)c2ccc3ncc(-c4cnn(C)c4)nc3c2)c1 [Compound 658]	152 °C
COc1cc(OC)cc(N(CC#CC2CCN(C(=O)OC(C)(C)C)CC2)c2ccc3ncc(-c4cnn(C)c4)nc3c2)c1	67 °C
CNCCn1cc(-c2cnc3ccc(N(CC4CC4)c4cc(OC)cc(OC)c4)cc3n2)cn1	103 °C and 103.14 °C
CNC(=O)Cn1cc(-c2cnc3ccc(N(CCO)c4cc(OC)cc(OC)c4)cc3n2)cn1 [Compound 21]	204.45 °C and 204.5 °C
COc1cc(OC)cc(N(CC(O)CN2CCC(F)(F)C2)c2ccc3ncc(-c4cnn(C)c4)nc3c2)c1 (stereo not drawn) [Compound 374]	206.48 °C
COc1cc(OC)cc(N(Cc2cccnc2)c2ccc3ncc(-c4cnn(C)c4)nc3c2)c1 [Compound 568]	164.5 °C
COc1cc(OC)cc(N(CC2CC2)c2ccc3ncc(-c4cnn(CC(=O)NCCN5CCCC5)c4)nc3c2)c1	162.91 °C
COc1cc(OC)cc(N(CCCC#N)c2ccc3ncc(-c4cnn(C)c4)nc3c2)c1 [Compound 242]	196.25 °C
COc1cc(OC)cc(N(CC2CCN(CC(F)(F)F)CC2)c2ccc3ncc(-c4cnn(C)c4)nc3c2)c1	123 °C and 123.5 °C
[2H]C([2H])([2H])Oc1cc(OC([2H])([2H])[2H])cc(N(c2ccc3ncc(-c4cnn(C)c4)nc3c2)C([2H])([2H])C([2H])([2H])O)c1	149 °C
COc1cc(O)cc(N(CCCO)c2ccc3ncc(-c4cn[nH]c4)nc3c2)c1	125 °C
COc1cc(OC)cc(N(Cc2cc(C)on2)c2ccc3ncc(-c4cnn(C)c4)nc3c2)c1	171 °C
COc1cc(OC)cc(N(CC(C)(C)O)c2ccc3ncc(-c4cnn(C)c4)nc3c2)c1 [Compound 78]	162 °C and 162.1 °C
COc1cc(OC)cc(N(C[C@H](O)CO)c2ccc3ncc(-c4cnn(C)c4)nc3c2)c1 (single isomer, unassigned) [Compound 98]	186.98 °C
COc1cc(OC)cc(N(CCCc2cc(C)ccn2)c2ccc3ncc(-c4cnn(C)c4)nc3c2)c1 [Compound 635]	110 °C and 111 °C
CCOP(=O)(CCN(c1cc(OC)cc(OC)c1)c1ccc2ncc(-c3cnn(C)c3)nc2c1)OCC	122 °C
COc1cc(OC)cc(N(CCCn2cccn2)c2ccc3ncc(-c4cnn(C)c4)nc3c2)c1 [Compound 448]	80 °C
COc1cc(OC)cc(N(CCC(=O)N(C)OC)c2ccc3ncc(-c4cnn(C)c4)nc3c2)c1 [Compound 633]	130 °C
c1ccc(N(CC2CC2)c2ccc3ncc(-c4cn[nH]c4)nc3c2)cc1 [Compound 54]	138 °C
